# In patent US20260285850A1, “SUBSTITUTED OXAZOLIDINONES AND IMIDAZOLINONES AS HERBICIDES” (FMC CORPORATION, priority 2023, published 2026):
# Experiments:
# Format in all cases: in vivo
# [1] = system: sedge, umbrella (small-flower umbrella sedge, Cyperus difformis); assay: Test B flooded paddy test, visual plant response rating 0-100; conditions: 250 g ai/ha, Flood, applied to paddy water, evaluated after 13 days
# How it was run: (§1)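 2-leaf plants; flood 3 cm over soil; compound dosed into paddy water; depth kept constant; greenhouse 13 d; visual scoring vs controls. Dash = no result.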
# [2] = system: barnyardgrass (Echinochloa crusgalli); assay: as above; conditions: 250 g ai/ha, Flood, applied to paddy water, evaluated after 13 days
# How it was run: as §1
# [3] = system: ducksalad (Heteranthera limosa); assay: as above; conditions: 250 g ai/ha, Flood, applied to paddy water, evaluated after 13 days
# How it was run: as §1
# [4] = system: rice (Oryza sativa); assay: as above; conditions: 250 g ai/ha, Flood, applied to paddy water, evaluated after 13 days
# How it was run: as §1
# [5] = system: palmer (palmer amaranth, palmer pigweed, Amaranthus palmeri); assay: Test A postemergence application, visual injury rating 0-100
# How it was run: (§2)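 Plants in a loam and sand soil blend were treated with each test chemical, in a non-phytotoxic solvent system including surfactant, either sprayed on seeded soil before emergence or applied after emergence at the one- to two-leaf stage. Ten days later in the greenhouse, plants were compared with untreated controls and visually rated from 0 (no effect) to 100 (complete control).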
# [6] = system: soybean (Glycine max); assay: as above
# How it was run: as §2
# [7] = system: galium (catchweed bedstraw, Galium aparine); assay: as above
# How it was run: as §2
# [8] = system: barnyardgrass (Echinochloa crus-galli); assay: as above
# How it was run: as §2
# [9] = system: horseweed (Erigeron canadensis); assay: as above
# How it was run: as §2
# [10] = system: green foxtail (Setaria viridis); assay: as above
# How it was run: as §2
# [11] = system: corn (Zea mays); assay: as above
# How it was run: as §2
# [12] = system: blackgrass (Alopecurus myosuroides); assay: as above
# How it was run: as §2
# [13] = system: oat, wild (wild oat, Avena fatua); assay: as above
# How it was run: as §2
# [14] = system: wheat (Triticum aestivum); assay: as above
# How it was run: as §2
# [15] = system: ragweed (common ragweed, Ambrosia artemisiifolia); assay: as above
# How it was run: as §2
# [16] = system: kochia (Bassia scoparia); assay: as above
# How it was run: as §2
# [17] = system: ryegrass, Italian (italian ryegrass, Lolium multiflorum); assay: as above
# How it was run: as §2
# [18] = system: palmer (palmer amaranth, palmer pigweed, Amaranthus palmeri); assay: Test A preemergence soil spray, visual injury rating 0-100; conditions: 10 days
# How it was run: as §2
# [19] = system: soybean (Glycine max); assay: as above; conditions: 10 days
# How it was run: as §2
# [20] = system: barnyardgrass (Echinochloa crus-galli); assay: as above; conditions: 10 days
# How it was run: as §2
# [21] = system: green foxtail (Setaria viridis); assay: as above; conditions: 10 days
# How it was run: as §2
# [22] = system: corn (Zea mays); assay: as above; conditions: 10 days
# How it was run: as §2
# [23] = system: blackgrass (Alopecurus myosuroides); assay: as above; conditions: 10 days
# How it was run: as §2
# [24] = system: oat, wild (wild oat, Avena fatua); assay: as above; conditions: 10 days
# How it was run: as §2
# [25] = system: wheat (Triticum aestivum); assay: as above; conditions: 10 days
# How it was run: as §2
# [26] = system: ragweed (common ragweed, Ambrosia artemisiifolia); assay: as above; conditions: 10 days
# How it was run: as §2
# [27] = system: kochia (Bassia scoparia); assay: as above; conditions: 10 days
# How it was run: as §2
# [28] = system: ryegrass, Italian (italian ryegrass, Lolium multiflorum); assay: as above; conditions: 10 days
# How it was run: as §2
# [29] = 62 g ai/ha, postemergence, 10 days, 0 = no effect, 100 = complete control
# [30] = Postemergence, 16 g ai/ha, greenhouse 10 days, 0 no effect, 100 complete control
# [31] = 62 g ai/ha, 0 = no effect, 100 = complete control
structure (smiles),measurement,setting,value
CC1(C(=O)NC2C=CC(C(=O)O)C2)CN(c2cc(F)cc(F)c2)C(=O)O1 (stereo not shown) [Compound 138],"Plant response rating, Sedge, Umbrella (0 to 100 scale, 0 is no effect and 100 is complete control)",[1],95
same,"Plant response rating, Barnyardgrass (0 to 100 scale, 0 is no effect and 100 is complete control)",[2],95
same,"Plant response rating, Ducksalad (0 to 100 scale, 0 is no effect and 100 is complete control)",[3],100
same,"Plant response rating, Rice (0 to 100 scale, 0 is no effect and 100 is complete control)",[4],95
same,"Pigweed, Palmer plant response rating (0-100)",[5]; [29],90
same,"Pigweed, Palmer plant response rating (0 to 100 scale)",[5]; [30],90
same,Soybean plant response rating (0-100),[6]; [29],60
same,Soybean plant response rating (0 to 100 scale),[6]; [30],60
same,Galium plant response rating (0-100),[7]; [29],90
same,Galium plant response rating (0 to 100 scale),[7]; [30],90
same,Barnyardgrass plant response rating (0-100),[8]; [29],80
same,Barnyardgrass plant response rating (0 to 100 scale),[8]; [30],70
same,Horseweed plant response rating (0-100),[9]; [29],80
same,Horseweed plant response rating (0 to 100 scale),[9]; [30],50
same,"Foxtail, Green plant response rating (0-100)",[10]; [29],90
same,"Foxtail, Green plant response rating (0 to 100 scale)",[10]; [30],80
same,Corn plant response rating (0-100),[11]; [29],100
same,Corn plant response rating (0 to 100 scale),[11]; [30],100
same,Blackgrass plant response rating (0-100),[12]; [29],90
same,Blackgrass plant response rating (0 to 100 scale),[12]; [30],70
same,"Oat, Wild plant response rating (0-100)",[13]; [29],90
same,"Oat, Wild plant response rating (0 to 100 scale)",[13]; [30],90
same,Wheat plant response rating (0-100),[14]; [29],90
same,Wheat plant response rating (0 to 100 scale),[14]; [30],90
same,Ragweed plant response rating (0-100),[15]; [29],80
same,Ragweed plant response rating (0 to 100 scale),[15]; [30],60
same,Kochia plant response rating (0-100),[16]; [29],80
same,Kochia plant response rating (0 to 100 scale),[16]; [30],80
same,"Ryegrass, Italian plant response rating (0-100)",[17]; [29],90
same,"Ryegrass, Italian plant response rating (0 to 100 scale)",[17]; [30],60
same,"Pigweed, Palmer plant response rating","[18]; 16 g ai/ha, 0 to 100 scale",30
same,"Pigweed, Palmer plant response rating (0-100)",[18]; [31],90
same,Soybean plant response rating,"[19]; 16 g ai/ha, 0 to 100 scale",30
same,Soybean plant response rating (0-100),[19]; [31],80
same,Barnyardgrass plant response rating,"[20]; 16 g ai/ha, 0 to 100 scale",60
same,Barnyardgrass plant response rating (0-100),[20]; [31],100
same,"Foxtail, Green plant response rating","[21]; 16 g ai/ha, 0 to 100 scale",20
same,"Foxtail, Green plant response rating (0-100)",[21]; [31],90
same,Corn plant response rating,"[22]; 16 g ai/ha, 0 to 100 scale",60
same,Corn plant response rating (0-100),[22]; [31],90
same,Blackgrass plant response rating,"[23]; 16 g ai/ha, 0 to 100 scale",40
same,Blackgrass plant response rating (0-100),[23]; [31],70
same,"Oat, Wild plant response rating","[24]; 16 g ai/ha, 0 to 100 scale",50
same,"Oat, Wild plant response rating (0-100)",[24]; [31],90
same,Wheat plant response rating,"[25]; 16 g ai/ha, 0 to 100 scale",50
same,Wheat plant response rating (0-100),[25]; [31],90
same,Ragweed plant response rating,"[26]; 16 g ai/ha, 0 to 100 scale",0
same,Ragweed plant response rating (0-100),[26]; [31],40
same,Kochia plant response rating,"[27]; 16 g ai/ha, 0 to 100 scale",90
same,Kochia plant response rating (0-100),[27]; [31],90
same,"Ryegrass, Italian plant response rating","[28]; 16 g ai/ha, 0 to 100 scale",70
same,"Ryegrass, Italian plant response rating (0-100)",[28]; [31],90
